In publication PMC12567500, “Activity-Based Profiling of Papain-like Cysteine Proteases During Late-Stage Leaf Senescence in Barley” (Plants, 2025):

Experiments:
[1] = target: R-AMC cleaving aminopeptidase activity (Fr. No 26–27 of barley leaf extract); experiment: Inhibition of R-AMC cleaving aminopeptidase activity, pooled ion-exchange fractions Nos. 26–27; type: biochemical, barley (Hordeum vulgare L.); settings: for IC50: substrate R-AMC 25 µM, Fr. No 26–27, senescing leaves six weeks after anthesis, pH 5.5, read-out: Effect/IC50; for Inhibition of R-AMC cleaving aminopeptidase activity (in words): substrate R-AMC, earlier eluting fractions
[2] = system: PLCPs (cathepsin B-like activity, Fr. No 35–36 of barley leaf extract); experiment: Inhibition of Z-RR-AMC cleavage, pooled ion-exchange fractions Nos. 35–36; type: biochemical, barley (Hordeum vulgare L.); settings: for IC50: substrate Z-RR-AMC 25 µM, Fr. No 35–36, senescing leaves six weeks after anthesis, pH 5.5, read-out: Effect/IC50
Protocol: (§1) Soluble proteins from barley leaves were extracted by homogenizing 10 g of leaf powder in 200 mL of ice-cold 50 mM Tris-HCl buffer (pH 7.4). Homogenates were filtered through one layer of Miracloth (Calbiochem, San Diego, CA, USA), centrifuged at 20,000× g for 20 min at 4 °C, and the supernatants were then filtered through a 0.45 μm filter (Avantor, Radnor, PA, USA). PLCPs were separated using anion-exchange chromatography on a DEAE-Sepharose CL-6B column (volume 6 mL) equilibrated with 0.05 M Tris-HCl buffer (pH 7.4). The column was washed with equilibration buffer, and bound material was eluted with a NaCl gradient (0.0–1.0 M). Collected fractions (1 mL each) were kept in an ice bath and used for measurements of peptidase activity and protein content. Fractions with active cysteine proteases were pooled. To reduce the NaCl concentration and exchange the buffer to 0.1 M Na-citrate (pH 5.5), three sequential filtration steps using 10 kDa ultrafiltration 15 mL units (Merck Millipore Ltd., Carrigtwohill, County Cork, Ireland) were utilized, and the samples were incubated with gentle shaking with 10 µM DCG-04 in the presence of 2 mM DTT for 3 h at 37 °C. […] The intensity of DCG-04-labeled barley cysteine proteases was determined in our previous experiments using streptavidin-horseradish peroxidase. After the incubation, proteins were rapidly precipitated using 80% acetone under inclusion of 100 mM NaCl.
(§2) Fluorogenic substrates Z-FR-AMC to determine cathepsin B- and L-like activity, and Z-RR-AMC to determine cathepsin B-like activity, were used. These substrates show fluorescence when AMC is released as a consequence of the hydrolysis of the Arg-AMC bond. The emitted fluorescence was detected with a SpectraMax M2 microplate reader (Molecular Devices, San Jose, CA, USA) with λex = 360 nm and λem = 460 nm. Before use, the substrates were dissolved in DMSO at 10 mM and stored at −20 °C. The measurements were made in 96-well black microplates (PerkinElmer Inc., Waltham, MA, USA), and each well contained a 100 μL final volume of 0.1 M Na-citrate buffer (pH 5.5) with DTT (2 mM), an aliquot of extract or chromatographic fraction, and fluorogenic substrate (25 μM). The reaction was initiated by the addition of the substrate. The final concentration of DMSO in microplate wells was 1% in all assays. The assays were conducted at room temperature, and relative fluorescence readings were recorded over a period of 10 min.
(§3) For the inhibition assays, an inhibitor (1 µL of stock solution of E-64 or bestatin in DMSO, or stock solution of 1,10-phenanthroline in ethanol) at different concentrations was added to the reaction mixture. […]

[3] = system: PLCPs (cathepsin B- and L-like activity, Fr. No 35–36 of barley leaf extract); experiment: Inhibition of Z-FR-AMC cleavage, pooled ion-exchange fractions Nos. 35–36; type: biochemical, barley (Hordeum vulgare L.); settings: for IC50: substrate Z-FR-AMC 25 µM, Fr. No 35–36, senescing leaves six weeks after anthesis, pH 5.5, read-out: Effect/IC50
Protocol: as §1, §2, §3

[4] = system: aleurain (a cysteine aminopeptidase); parameters: method as in PMID 12354950; settings: cited from earlier work
[5] = system: PLCPs from maize leaves; parameters: method as in PMID 31114592; settings: ion-exchange chromatography; cited from earlier work
[6] = system: PLCPs (pooled fractions with active cysteine proteases); experiment: DCG-04 labeling of pooled active fractions, remaining PLCP activity checked with Z-FR-AMC and Z-RR-AMC; type: biochemical, barley (Hordeum vulgare L.); settings: 10 µM DCG-04, 2 mM DTT, 3 h at 37 °C, 0.1 M Na-citrate pH 5.5
Protocol: as §1, with “After the incubation, proteins were rapidly precipitated using 80% acetone under inclusion of 100 mM NaCl.” left out

| IC50 [1] [µM] | IC50 [2] [µM] | IC50 [3] [µM] | Inhibition of R-AMC cleaving aminopeptidase activity (in words) [1] | SMILES | Inhibition of the activity of the peak fractions (in words) ([2]; substrate Z-RR-AMC, peak fractions of DEAE-Sepharose) | Inhibition of the activity of the peak fractions (in words) ([3]; substrate Z-FR-AMC, peak fractions of DEAE-Sepharose) | Inhibition of aleurain activity (in words) [4] | Sensitivity of the single Z-FR-AMC cleavage activity peak to inhibition (in words) [5] | Remaining PLCP activity after incubation with probe [6] |
| --- | --- | --- | --- | --- | --- | --- | --- | --- | --- |
| > 25 | 0.0091 ± 0.0022 | 0.0153 ± 0.0041 |  | CC(C)C[C@H](NC(=O)[C@H]1O[C@@H]1C(=O)O)C(=O)NCCCCN=C(N)N (relative stereo) [E-64, trans-epoxysuccinyl-L-leucylamido-(4-guanidino)butane] | completely inhibited | completely inhibited | inhibited | sensitive |  |
| 68.5 ± 12.2 | > 5000 | > 5000 | inhibited | c1cnc2c(c1)ccc1cccnc12 [1,10-Phenanthroline, 1,10-phenanthroline] |  |  |  |  |  |
| 247 ± 38 | > 1000 | > 1000 | inhibited | CC(C)C[C@H](NC(=O)[C@@H](O)[C@H](N)Cc1ccccc1)C(=O)O [Bestatin, bestatin] |  |  |  |  |  |
|  |  |  |  | CCOC(=O)[C@H]1O[C@@H]1C(=O)N[C@@H](CC(C)C)C(=O)N[C@@H](Cc1ccc(O)cc1)C(=O)NCCCCCC(=O)N[C@@H](CCCCNC(=O)CCCC[C@@H]1SC[C@@H]2NC(=O)N[C@@H]21)C(N)=O [DCG-04] |  |  |  |  | No remaining PLCP activity |
